# Tested on: C. trachomatis L2
# Assay: genome-wide siRNA-based screen in human epithelial cells, formation of Chlamydia infectious progeny
# Format: cell-based
# Details: Table 1b, primary screen, genes of nucleotide metabolism
# Source text: We performed a genome-wide siRNA-based screen in human epithelial cells to identify host cell factors that are essential for Chlamydia infection using the Qiagen Hu_Genome Set V1.0 and the Human Druggable Genome siRNA Set V2.0. C. trachomatis L2 was used.
row,Substance,Infectivity phenotype upon Knockdown
1,"Hs_AMPD3_9: siRNA, target gene AMPD3 (sense CAACAGTTTGTTCCTCGAATA; chemistry not given here; the letters are possibly those of the target site)",down
2,"Hs_ENPP1_2: siRNA, target gene ENPP1 (sense TGGGCAAACAGTAGACTTATA; chemistry not given here; the letters are possibly those of the target site)",down
3,"Hs_ENPP3_1: siRNA, target gene ENPP3 (sense CTGGCTGTTAGGAGTAAATCA; chemistry not given here; the letters are possibly those of the target site)",down
4,"Hs_ENPP3_2: siRNA, target gene ENPP3 (sense TAGCAATTTGGTACCTATGTA; chemistry not given here; the letters are possibly those of the target site)",down
5,"Hs_ENPP5_1: siRNA, target gene ENPP5 (sense AAGCATTTAATTCACAGTCAA; chemistry not given here; the letters are possibly those of the target site)",down
6,"Hs_ENPP6_1: siRNA, target gene ENPP6 (sense TTGGATAATTCTATACATAAA; chemistry not given here; the letters are possibly those of the target site)",down
7,"Hs_ENPP6_2: siRNA, target gene ENPP6 (sense CAGGGTGATGTGCATGCTGAA; chemistry not given here; the letters are possibly those of the target site)",down
8,"Hs_ENTPD4_1: siRNA, target gene ENTPD4 (sense CAGCAGGAAGAAGTAGCTAAA; chemistry not given here; the letters are possibly those of the target site)",down
9,"Hs_ENTPD4_2: siRNA, target gene ENTPD4 (sense CAGCAGAAAGCTATTCTGGAA; chemistry not given here; the letters are possibly those of the target site)",down
10,"Hs_GMPR2_11: siRNA, target gene GMPR2 (sense TCCCAAGGCACCAGTACTCTA; chemistry not given here; the letters are possibly those of the target site)",down
11,"Hs_GMPR2_12: siRNA, target gene GMPR2 (sense TTGGACCTTCACATATCTAAA; chemistry not given here; the letters are possibly those of the target site)",down
12,"Hs_GMPS_1: siRNA, target gene GMPS (sense AACAGAGAACTTGAGTGTATT; chemistry not given here; the letters are possibly those of the target site)",down
13,"Hs_GMPS_2: siRNA, target gene GMPS (sense AAGAATTTCCTTTATGATATA; chemistry not given here; the letters are possibly those of the target site)",down
14,"Hs_GUK1_6: siRNA, target gene GUK1 (sense CCCGGCGAGGAGAACGGCAAA; chemistry not given here)",down
15,"Hs_HPRT1_6: siRNA, target gene HPRT1 (sense CCCACGAAGTGTTGGATATAA; chemistry not given here; the letters are possibly those of the target site)",down
16,"Hs_HPRT1_9: siRNA, target gene HPRT1 (sense CCACAGCACTATTGAGTGAAA; chemistry not given here; the letters are possibly those of the target site)",down
17,"Hs_IMPDH1_6: siRNA, target gene IMPDH1 (sense CAGCAGCAGCCAGAAACGATA; chemistry not given here; the letters are possibly those of the target site)",down
18,"Hs_IMPDH1_7: siRNA, target gene IMPDH1 (sense CAGGCGGGCGTCGACGTCATA; chemistry not given here; the letters are possibly those of the target site)",down
19,"Hs_IMPDH2_6: siRNA, target gene IMPDH2 (sense TGGGATCCGGCTAAAGAAATA; chemistry not given here; the letters are possibly those of the target site)",down
20,"Hs_IMPDH2_8: siRNA, target gene IMPDH2 (sense AATGTGGGTCATATTGCGAAA; chemistry not given here; the letters are possibly those of the target site)",down

row,Substance,Infectivity phenotype upon Knockdown
1,"Hs_ITPA_2: siRNA, target gene ITPA (sense CTGGAGAAGTTAAAGCCTGAA; chemistry not given here; the letters are possibly those of the target site)",down
2,"Hs_ITPA_3: siRNA, target gene ITPA (sense GAGGAGGTCGTTCAGATTCTA; chemistry not given here; the letters are possibly those of the target site)",down
3,"Hs_NME1_5: siRNA, target gene NME1 (sense TTCCGCCTTGTTGGTCTGAAA; chemistry not given here; the letters are possibly those of the target site)",down
4,"Hs_NME1_8: siRNA, target gene NME1 (sense TCCGAAGATCTTCTCAAGGAA; chemistry not given here; the letters are possibly those of the target site)",down
5,"Hs_NME2P1_2: siRNA, target gene NME2P1 (sense CAGGTTGGCAGGAACATCATT; chemistry not given here; the letters are possibly those of the target site)",down
6,"Hs_NME2P1_4: siRNA, target gene NME2P1 (sense CCTGGTGGGCAAGATCATCAA; chemistry not given here; the letters are possibly those of the target site)",down
7,"Hs_NME2_3: siRNA, target gene NME2 (sense TAGAGCATATTTGCCAATAAA; chemistry not given here; the letters are possibly those of the target site)",down
8,"Hs_NME2_6: siRNA, target gene NME2 (sense TGGGCTGGTGAAGTACATGAA; chemistry not given here; the letters are possibly those of the target site)",down
9,"Hs_NME2_22: siRNA, target gene NME2 (sense CAGCACTACATTGACCTGAAA; chemistry not given here; the letters are possibly those of the target site)",down
10,"Hs_NME3_3: siRNA, target gene NME3 (sense CTGCATCGAGGTTGGCAAGAA; chemistry not given here; the letters are possibly those of the target site)",down
11,"Hs_NME3_5: siRNA, target gene NME3 (sense ACGGCCGCCTTGTCAAGTATA; chemistry not given here; the letters are possibly those of the target site)",down
12,"Hs_NPR2_2: siRNA, target gene NPR2 (sense ACCCAACTGAATGAAGAGCTA; chemistry not given here; the letters are possibly those of the target site)",down
13,"Hs_NPR2_8: siRNA, target gene NPR2 (sense CAGCTCAGCCCTGTACATATA; chemistry not given here; the letters are possibly those of the target site)",down
14,"Hs_PAPSS2_1: siRNA, target gene PAPSS2 (sense ATGGAAGGTCCTGACAGATTA; chemistry not given here; the letters are possibly those of the target site)",down
15,"Hs_PDE1A_2: siRNA, target gene PDE1A (sense ACAGAGTGCTATAACTATAAA; chemistry not given here; the letters are possibly those of the target site)",down
16,"Hs_PDE1A_4: siRNA, target gene PDE1A (sense ACACAGAGTGCTATAACTATA; chemistry not given here; the letters are possibly those of the target site)",down
17,"Hs_PDE2A_3: siRNA, target gene PDE2A (sense ACCGCTTTGTACATGAGAATA; chemistry not given here; the letters are possibly those of the target site)",down
18,"Hs_PDE2A_4: siRNA, target gene PDE2A (sense ATCGCGGAGCTGATCTACAAA; chemistry not given here; the letters are possibly those of the target site)",down
19,"Hs_PDE4A_2: siRNA, target gene PDE4A (sense TTCGATCTTGTCTCCAATTAA; chemistry not given here; the letters are possibly those of the target site)",down

# — US20130116302A1, “PHARMACEUTICAL COMPOSITION FOR THE TREATMENT OF CHLAMYDIAL INFECTION” (Max-Planck-Gesellschaft zur Foerderung der Wissenschaften …, priority 2010, published 2013)
